Test results as given in ChEMBL document CHEMBL3885881, “DrugMatrix”.

Species on record: Rattus norvegicus
Assay: DrugMatrix - Regimen: Daily Repeat
Assay type: toxicity, organism-based, Sprague-Dawley
Parameters: regimen Daily Repeat, gender Male, age 6-8 weeks
Conditions: in vivo, po, route oral GAVAGE, vehicle 100 % WATER; for ABSOLUTE BASOPHIL / ABSOLUTE EOSINOPHIL / ABSOLUTE LYMPHOCYTE / ABSOLUTE MONOCYTE / ABSOLUTE SEGMENTED NEUTROPHIL / BASOPHIL / EOSINOPHIL / ERYTHROCYTE COUNT / HEMATOCRIT / HEMOGLOBIN / LEUKOCYTE COUNT / LYMPHOCYTE / MEAN CORPUSCULAR HEMOGLOBIN / MEAN CORPUSCULAR HEMOGLOBIN CONCENTRATION / NEUTROPHIL / NUCLEATED RED BLOOD CELLS / PLATELET COUNT: tissue Blood; for ALANINE AMINOTRANSFERASE / ALBUMIN / ALKALINE PHOSPHATASE / ASPARTATE AMINOTRANSFERASE / BLOOD UREA NITROGEN / CARBON DIOXIDE / CHLORIDE / CREATINE PHOSPHOKINASE / CREATININE / GLUCOSE / LACTATE DEHYDROGENASE / LIPASE / PHOSPHORUS / POTASSIUM / SODIUM / TOTAL BILIRUBIN / TOTAL PROTEIN / URIC ACID / CHOLESTEROL: tissue Plasma
[1] = 0 mg/kg, 72 h, dose level Control, time 3 day
[2] = 0 mg/kg, 120 h, dose level Control, time 5 day
[3] = 94 mg/kg, 72 h, dose level High, time 3 day

Compound: CN1[C@@H]2CC[C@H]1C[C@@H](OC(=O)C(CO)c1ccccc1)C2 (some centres not stated) [ATROPINE]
- ABSOLUTE BASOPHIL [1]: 0 CELLS/uL
- ABSOLUTE EOSINOPHIL [1]: 33.67 CELLS/uL
- ABSOLUTE LYMPHOCYTE [1]: 11257.17 CELLS/uL
- ABSOLUTE MONOCYTE [1]: 72.17 CELLS/uL
- ABSOLUTE SEGMENTED NEUTROPHIL [1]: 1220.33 CELLS/uL
- BASOPHIL [1]: 0%
- EOSINOPHIL [1]: 0.33%
- ERYTHROCYTE COUNT [1]: 5 x10E6/uL
- HEMATOCRIT [1]: 32.62%
- HEMOGLOBIN [1]: 12.83 G/DL
- LEUKOCYTE COUNT [1]: 12.58 x10E3/uL
- LYMPHOCYTE [1]: 89%
- MEAN CORPUSCULAR HEMOGLOBIN [1]: 25.67 pg
- MEAN CORPUSCULAR HEMOGLOBIN CONCENTRATION [1]: 39.35 G/DL
- NEUTROPHIL [1]: 10%
- NUCLEATED RED BLOOD CELLS [1]: 0 /100WBC
- PLATELET COUNT [1]: 1162.5 x10E3/uL
- ALANINE AMINOTRANSFERASE [1]: 45.33 u/L
- ALBUMIN [1]: 3.95 G/DL
- ALKALINE PHOSPHATASE [1]: 356.17 u/L
- ASPARTATE AMINOTRANSFERASE [1]: 81 u/L
- BLOOD UREA NITROGEN [1]: 11 mg/dL
- CARBON DIOXIDE [1]: 29.83 mmol/L
- CHLORIDE [1]: 97.8 MEQ/L
- CREATINE PHOSPHOKINASE [1]: 211.33 u/L
- CREATININE [1]: 0.11 mg/dL
- GLUCOSE [1]: 164.67 mg/dL
- LACTATE DEHYDROGENASE [1]: 143.17 u/L
- LIPASE [1]: 10.17 u/L
- PHOSPHORUS [1]: 10.88 mg/dL
- POTASSIUM [1]: 6.08 MEQ/L
- SODIUM [1]: 141.54 MEQ/L
- TOTAL BILIRUBIN [1]: 0.23 mg/dL
- TOTAL PROTEIN [1]: 5.65 G/DL
- URIC ACID [1]: 1 mg/dL
- ABSOLUTE BASOPHIL [2]: 0 CELLS/uL
- ABSOLUTE EOSINOPHIL [2]: 48.67 CELLS/uL
- ABSOLUTE LYMPHOCYTE [2]: 9267.83 CELLS/uL
- ABSOLUTE MONOCYTE [2]: 194.33 CELLS/uL
- ABSOLUTE SEGMENTED NEUTROPHIL [2]: 572.5 CELLS/uL
- BASOPHIL [2]: 0%
- EOSINOPHIL [2]: 0.33%
- ERYTHROCYTE COUNT [2]: 5.41 x10E6/uL
- HEMATOCRIT [2]: 36.17%
- HEMOGLOBIN [2]: 13.9 G/DL
- LEUKOCYTE COUNT [2]: 10.08 x10E3/uL
- LYMPHOCYTE [2]: 92.17%
- MEAN CORPUSCULAR HEMOGLOBIN [2]: 25.73 pg
- MEAN CORPUSCULAR HEMOGLOBIN CONCENTRATION [2]: 38.45 G/DL
- NEUTROPHIL [2]: 5.67%
- NUCLEATED RED BLOOD CELLS [2]: 0.33 /100WBC
- PLATELET COUNT [2]: 1122.33 x10E3/uL
- ALANINE AMINOTRANSFERASE [2]: 52.83 u/L
- ALBUMIN [2]: 4.12 G/DL
- ALKALINE PHOSPHATASE [2]: 367.33 u/L
- ASPARTATE AMINOTRANSFERASE [2]: 88 u/L
- BLOOD UREA NITROGEN [2]: 12.67 mg/dL
- CARBON DIOXIDE [2]: 33.67 mmol/L
- CHLORIDE [2]: 97 MEQ/L
- CHOLESTEROL [2]: 67.5 mg/dL
- CREATINE PHOSPHOKINASE [2]: 358.67 u/L
- CREATININE [2]: 0.14 mg/dL
- GLUCOSE [2]: 152.33 mg/dL
- LACTATE DEHYDROGENASE [2]: 180 u/L
- LIPASE [2]: 10.5 u/L
- PHOSPHORUS [2]: 10.63 mg/dL
- POTASSIUM [2]: 5.99 MEQ/L
- SODIUM [2]: 141.85 MEQ/L
- TOTAL BILIRUBIN [2]: 0.2 mg/dL
- TOTAL PROTEIN [2]: 6.18 G/DL
- URIC ACID [2]: 0.52 mg/dL
- ABSOLUTE BASOPHIL [3]: 0 CELLS/uL
- ABSOLUTE EOSINOPHIL [3]: 0 CELLS/uL
- ABSOLUTE LYMPHOCYTE [3]: 12944 CELLS/uL
- ABSOLUTE MONOCYTE [3]: 33.33 CELLS/uL
- ABSOLUTE SEGMENTED NEUTROPHIL [3]: 789.33 CELLS/uL
- BASOPHIL [3]: 0%
- EOSINOPHIL [3]: 0%
- ERYTHROCYTE COUNT [3]: 5.37 x10E6/uL
- HEMATOCRIT [3]: 33.77%
- HEMOGLOBIN [3]: 13.4 G/DL
- LEUKOCYTE COUNT [3]: 13.77 x10E3/uL
- LYMPHOCYTE [3]: 93.67%
- MEAN CORPUSCULAR HEMOGLOBIN [3]: 24.93 pg
- MEAN CORPUSCULAR HEMOGLOBIN CONCENTRATION [3]: 39.67 G/DL
- NEUTROPHIL [3]: 6%
- NUCLEATED RED BLOOD CELLS [3]: 0 /100WBC
- PLATELET COUNT [3]: 1031.67 x10E3/uL
- ALANINE AMINOTRANSFERASE [3]: 59.33 u/L
- ALBUMIN [3]: 4.03 G/DL
- ALKALINE PHOSPHATASE [3]: 322.67 u/L
- ASPARTATE AMINOTRANSFERASE [3]: 115 u/L
- BLOOD UREA NITROGEN [3]: 11 mg/dL
- CARBON DIOXIDE [3]: 26.33 mmol/L
- CHLORIDE [3]: 102.5 MEQ/L
- CHOLESTEROL [3]: 72.67 mg/dL
- CREATINE PHOSPHOKINASE [3]: 681.33 u/L
- CREATININE [3]: 0.13 mg/dL
- GLUCOSE [3]: 149.67 mg/dL
- LACTATE DEHYDROGENASE [3]: 237 u/L
- LIPASE [3]: 10.67 u/L
- PHOSPHORUS [3]: 9.43 mg/dL
- POTASSIUM [3]: 5.53 MEQ/L
- SODIUM [3]: 142.3 MEQ/L
- TOTAL BILIRUBIN [3]: 0.3 mg/dL
- TOTAL PROTEIN [3]: 5.6 G/DL
- URIC ACID [3]: 1 mg/dL
